The subject of experiment [1] is human iPS cells (253G1 cells). Kind of experiment: Differentiation induction of human iPS cells into pancreatic hormone-producing cells (2), quantitative RT-PCR. The class given is cell-based. The conditions noted are these: 1 nM betagenin in steps (A2) to (D2), vs ACN control, GAPDH corrected. Here is the method:
As human iPS cells, used were 253G1 cells purchased from the cell bank at RIKEN. The cells were cultured/maintained in an ES cell culture medium (DMEM/ham F12, 20% KSR, nonessential amino acid, 2 mM L-glutamine, 0.1 mM 2-mercaptoethanol, 5.2 mM NaOH) with added 4 ng/mL FGF-2 (Global Stem) and penicillin/streptomycin (Nacalai Tesque, Inc.) along with SNL76/7 cells (DS Pharma Biomedical) treated with mitomycin-C. CTK (0.25% trypsin, 1 mg/mL Collagenase IV, 20% KSR, 1 mM CaCl2 in PBS) was used for cell detachment, and diluted at a ratio of 1:3 to 1:4 to perform passage culture.
The cells were detached with trypsin-EDTA 3 days before the start of differentiation induction, and plated at a cell density of 6.3×10^4 cells/cm2, and cultured for 1 day in an ES cell culture medium with added 10 μM Y-27632 (Wako), 4 ng/mL FGF-2 and penicillin/streptomycin along with STO cells treated with mitomycin-C. Subsequently, they were further cultured for 2 days in an ES cell culture medium with added 4 ng/mL FGF-2 and penicillin/streptomycin.
On the first day of the start of differentiation induction, the culture medium was replaced with a RPMI1640 culture medium (Nacalai Tesque, Inc.) with added 2% (v/v) FBS, 100 ng/mL activin A (SBI), 3 μM CHIR99021 (Axon Medchem) and 1 nM betagenin, and cultured for 1 day (Step (A2)). […]
The gene expressions of insulin, glucagon, somatostatin were confirmed by quantitative RT-PCR for cells (n=3 for each of the betagenin addition group and the control group) obtained from 253G1 cells via the above steps (A2) to (D2). Specifically, total RNA was first extracted from the cells using a SV Total RNA Isolation System (Promega), and reverse transcription reactions were performed with BioScript™ transcriptase (Bioline), and then quantitative PCR analysis was performed with LightCycler™ (Roche) using SYBR™ Green PCR Master Mix (Applied Biosystems). Note that the gene expression of GAPDH was determined by quantitative RT-PCR as an internal control. […]

Experiment [2] has as its system MIN6 cells (pancreatic β cell line). Kind of experiment: EdU cell proliferation assay, growth promotion of pancreatic β cells (2), versus culture supernatants. The class given is cell-based. The conditions noted are these: betagenin 1 nM, compared with IBCAP culture supernatant and Mock culture supernatant (0.5 μL/well), Mock taken as 1.0, FIG. 4. The procedure: MIN6 cells provided by Dr. Miyazaki at Osaka University were used as a pancreatic β cell line. MIN6 cells were maintained in a DMEM culture medium with added 15% (v/v) of FBS.
A DMSO solution was prepared so that the concentration of chemically synthesized betagenin was 97% of purity, as a pancreatic hormone-producing cell growth-promoting agent.
First, HEK293T cells passaged in a DMEM culture medium with added 5% FBS and antibiotics (penicillin 100 U/mL, streptomycin […]) were plated on a 10 cm dish at 1×10^6 cells. On the next day, HEK293T cells were transfected with an expression vector (pCAGGS-IBCAP) constructed by ligating the gene encoding the IBCAP (=Betagenin) set forth in SEQ ID NO: 2 (which is corresponds to human TM4SF20, and hereinafter referred to “IBCAP.”) using FuGEN6 (Roche) to overexpression of IBCAP. The culture medium was replaced with an Opti-MEM culture medium 24 hours after that, and a culture supernatant was then collected another 24 hours after that, which was then used as an IBCAP culture supernatant for the subsequent experiments. […]
The incorporated EdU was visualized as red fluorescence using Alexa Flour™ 594, and observed with a fluorescence microscope (Carl Zeiss).

The results in this text go back to US9856304B2, “Peptide and application thereof” (Saitama Medical University, priority 2013, dated 2018).

With “betagenin: chemically synthesized peptide of SEQ ID NO: 1, fragment of human TM4SF20 from Position 170 to Position 229 (WRASSFHFDSEENKHRLIHFSVFLGLLLVGILEVLFGLSQIVIGFLGCLCGVSKRRSQIV; Peptide Sequence betagenin; listed as Homo sapiens)”, in experiment [1] (first day taken as 1, FIG. 6), the “amount of expression of insulin (relative)” value is “increased”. In experiment [1] (first day taken as 1, FIG. 7), the “amount of expression of glucagon (relative)” value is recorded as “increased”. For the same substance, in experiment [1] (first day taken as 1, FIG. 8), the “amount of expression of somatostatin (relative)” value is on record as “increased”. In addition, the “relative EdU fluorescence intensity” value in experiment [2] is “significantly increased”.
